Laboratory results from patent publication US9988627B2, “Formats for organic compounds for use in RNA interference” (NOVARTIS AG, priority 2013, dated 2018).
“Also recorded” adds a separate entry of the source.

Each compound was assayed on FVII (Factor VII) (assay: RNA interference of 3′-capped mF7-III siRNAs against FVII (FIG. 2)). Details: 19-mer blunt-ended mF7-III siRNA, A12S17.
Format: cell-based, mouse

**Q.** With OCCCCCCO [C6, 1,6-hexane-diol] as the compound, how does the “ability to mediate RNA interference” value read?
**A.** allow the RNAi agent to perform RNA interference

**Q.** Which “ability to mediate RNA interference” value does the source give for C1C2CC3CC1CC(C2)C3 [Adamantane, adamantane] here?
**A.** allow the RNAi agent to perform RNA interference

**Q.** Which “ability to mediate RNA interference” value does the source give for OCCOCCOCCO [Triethylene glycol, triethylene glycol] here?
**A.** allow the RNAi agent to perform RNA interference

What follows are compounds tested on Hepcidin (HAMP) mRNA (assay: Hepcidin mRNA down regulation in HuH-7 cells by 18-mer HAMP siRNA-PAZ ligand conjugates). Details: format S402+ribitol+MOE clamp.
Format: cell-based, Homo sapiens
Description: Potency of 18-mer HAMP (Hepcidin) siRNA-PAZ Ligand Conjugates is studied.
A variety of constructs were made using the same two sequences. […] A variety of 3′ end caps is also used.
Hepcidin mRNA down regulation in HuH-7 cells is studied at 3 doses.
Two test sequences used are hs_HAMP_400 and 402. “hs” indicates “Homo sapiens”. 400 is a sequence beginning at position 400 and 402 is an overlapping sequence […]
Various other hs_HAMP 400 and 402 are depicted in FIG. 5A (Guide or antisense strand) and 5B (corresponding Sense strand).
This Table indicates the Nickname (“Oligo Identifier”) for the 3′ end cap, and the DMT, Succinate and Carboxylate variants thereof; the Carboxylate Kd; the KD (knockdown) mediated by a Hepcidin RNAi agent comprising the 3′ end cap (format: S402+ribitol+MOE clamp) at 5 nM in vitro; and the approximate (approx.) IC50

**Q.** Which “Hepcidin KD at 5 nM in vitro (%)” value does the source give for OCCCCCCO [C6, 1,6-hexane-diol] here?
**A.** 66%

The compounds below were run on hepcidin (Hamp1) mRNA in liver (assay: In vivo hepcidin knockdown in mouse liver (mRNA-qPCR), LNP569 Hamp254 18-mers). Details: 1×3 mg/kg i.v., 48 h (day 2).
Method: PBS: phosphate-buffered saline (negative control). This experiment was performed in vivo in the mouse. These were single 3 mg/kg dose i.v., and Hepcidin mRNA knockdown in liver was measured after 2 and 7 days.
LNP569 is a lipid nanoparticle preparation of the RNAi agent.
Two timepoints—48 and 168 hrs post-injection (both 3 mg/kg).
Assess hepcidin knockdown in liver (mRNA-qPCR)

**Q.** With OCCCCCCO [C6, 1,6-hexane-diol] as the compound, how does the “Hepcidin knockdown in vivo at 48 hours post-dose” value read?
**A.** more efficacious than the 21-mer format; also recorded: able to mediate Hepcidin knockdown

Each compound was assayed on human APOC3 (assay: 18-mer with internal spacer RNAi agents, residual mRNA in Huh7 at 15 nM). Details: not given.
Format: cell-based
Description: In the various RNAi agents described in this example, a nucleotide at any of positions 1 to 18 was individually replaced by a spacer subunit, and RNA interference activity was retained. The 3′ end of each strand terminates in a phosphate or modified internucleoside linker and further comprises, in 5′ to 3′ order, a second spacer, a second phosphate or modified internucleotide linker, and a 3′ end cap.
Similarly, U027, A027, G027 indicate that the nucleotides U, A or G, respectively, are absent and have been replaced by a spacer, which is ribitol. The target used in human APOC3. The numbers in columns 2 represent residual mRNA levels; thus, 5.8 in column 2, row 2, indicates residual mRNA level of 5.8% or 94.2% gene knockdown. SD, standard deviation.

**Q.** Which “% Res mRNA_Huh7_15 nM” value does the source give for “21 (sense GpGpApC004pApGpU004pApU004pU004pC004pU004pC004pApGpU004pGpC004pU004pU002pU002; antisense ApGpCpApCpU004pGpApGpApApU004pApCpU004pGpU004pCpCpU002pU002; chemical modifications, as printed in the source, key not given here) [compound 21]” here?
**A.** 6.5%

**Q.** With “1 (sense GACAGUAUUCUCAGUGCU; antisense AGCACUGAGAAUACUGU; chemical modifications, end caps, chemistry not fully specified) [compound 1]” as the compound, how does the “% Res mRNA_Huh7_15 nM” value read?
**A.** 5.8%

**Q.** “12 (sense GACAGUAUUCUCAGUGCU; antisense AGCACUAGAAUACUGUC; siRNA; modified with OMe, F, MOE, ribitol spacers, code 006 undefined, further chemistry not given here) [compound 12]” was tested. Which “% Res mRNA_Huh7_15 nM” value did it give?
**A.** 10.5%

**Q.** “16 (sense GACAGUAUUCUCAGUGCU; antisense AGACUGAGAAUACUGUC; siRNA; modified with OMe, F, MOE, ribitol spacers, code 006 undefined, further chemistry not given here) [compound 16]” was tested. Which “% Res mRNA_Huh7_15 nM” value did it give?
**A.** 6.8%

**Q.** “7 (sense GACAGUAUUCUCAGUGCU; antisense AGCACUGAGAAACUGUC; chemical modifications, end caps, chemistry not fully specified) [compound 7]” was tested. Which “% Res mRNA_Huh7_15 nM” value did it give?
**A.** 22%

**Q.** With “15 (sense GACAGUAUUCUCAGUGCU; antisense AGCCUGAGAAUACUGUC; siRNA; modified with OMe, F, MOE, ribitol spacers, code 006 undefined, further chemistry not given here) [compound 15]” as the compound, how does the “% Res mRNA_Huh7_15 nM” value read?
**A.** 18.3%

**Q.** How did the “% Res mRNA_Huh7_15 nM” value turn out when COc1ccc(C(OCc2cc(Br)cc(CO)c2)(c2ccccc2)c2ccc(OC)cc2)cc1 [compound 2, (3-((bis(4-methoxyphenyl)(phenyl)methoxy)methyl)-5-bromophenyl)methanol] was run?
**A.** 3.4%

**Q.** With “4 (sense GACAGUAUUCUCAGUGCU; antisense AGCACUGAGAAUACGUC; chemical modifications, end caps, chemistry not fully specified) [compound 4]” as the compound, how does the “% Res mRNA_Huh7_15 nM” value read?
**A.** 9.5%

**Q.** How did the “% Res mRNA_Huh7_15 nM” value turn out when “9 (sense GACAGUAUUCUCAGUGCU; antisense AGCACUGAGAUACUGUC; siRNA; 2'-modified nucleotides, phosphates, 3' end caps, further chemistry not given here) [compound 9]” was run?
**A.** 56.7%

**Q.** “10 (sense GACAGUAUUCUCAGUGCU; antisense AGCACUGAAAUACUGUC; siRNA; modified with OMe, F, MOE, ribitol spacers, code 006 undefined, further chemistry not given here) [compound 10]” was tested. Which “% Res mRNA_Huh7_15 nM” value did it give?
**A.** 55%

**Q.** With “5 (sense GACAGUAUUCUCAGUGCU; antisense AGCACUGAGAAUAUGUC; chemical modifications, end caps, chemistry not fully specified) [compound 5]” as the compound, how does the “% Res mRNA_Huh7_15 nM” value read?
**A.** 25.6%

**Q.** For “3 (sense GACAGUAUUCUCAGUGCU; antisense AGCACUGAGAAUACUUC; chemical modifications, end caps, chemistry not fully specified) [compound 3]”, which “% Res mRNA_Huh7_15 nM” value is on record?
**A.** 11.3%

**Q.** “11 (sense GACAGUAUUCUCAGUGCU; antisense AGCACUGGAAUACUGUC; siRNA; modified with OMe, F, MOE, ribitol spacers, code 006 undefined, further chemistry not given here) [compound 11]” was tested. Which “% Res mRNA_Huh7_15 nM” value did it give?
**A.** 22.3%

**Q.** “17 (sense GACAGUAUUCUCAGUGCU; antisense ACACUGAGAAUACUGUC; chemical modifications, end caps, chemistry not fully specified) [compound 17]” was tested. Which “% Res mRNA_Huh7_15 nM” value did it give?
**A.** 57.4%

**Q.** How did the “% Res mRNA_Huh7_15 nM” value turn out when “8 (sense GACAGUAUUCUCAGUGCU; antisense AGCACUGAGAUACUGUC; chemical modifications, end caps, chemistry not fully specified) [compound 8]” was run?
**A.** 23.8%

**Q.** With “14 (sense GACAGUAUUCUCAGUGCU; antisense AGCAUGAGAAUACUGUC; siRNA; modified with OMe, F, MOE, ribitol spacers, code 006 undefined, further chemistry not given here) [compound 14]” as the compound, how does the “% Res mRNA_Huh7_15 nM” value read?
**A.** 3.2%

**Q.** How did the “% Res mRNA_Huh7_15 nM” value turn out when “20 (sense GACAGUAUUCUCAGUGCU; antisense AGCACUGAGAAUACUGUC; siRNA; chemical modifications, end caps, further chemistry not given here) [compound 20]” was run?
**A.** 9.7%

**Q.** “19 (sense GACAGUAUUCUCAGUGCU; antisense AGCACUGAGAAUACUGUC; chemical modifications, end caps, chemistry not fully specified) [compound 19]” was tested. Which “% Res mRNA_Huh7_15 nM” value did it give?
**A.** 6.3%

**Q.** With “13 (sense GACAGUAUUCUCAGUGCU; antisense AGCACGAGAAUACUGUC; siRNA; modified with OMe, F, MOE, DNA, ribitol spacers, code 006 undefined, further chemistry not given here) [compound 13]” as the compound, how does the “% Res mRNA_Huh7_15 nM” value read?
**A.** 4.4%

**Q.** For “6 (sense GACAGUAUUCUCAGUGCU; antisense AGCACUGAGAAUCUGUC; chemical modifications, end caps, chemistry not fully specified) [compound 6]”, which “% Res mRNA_Huh7_15 nM” value is on record?
**A.** 33.1%

**Q.** Which “% Res mRNA_Huh7_15 nM” value does the source give for “18 (sense GACAGUAUUCUCAGUGCU; antisense GCACUGAGAAUACUGUC; chemical modifications, end caps, chemistry not fully specified) [compound 18]” here?
**A.** 7.6%
